Experimental data reported in patent US9169270B2, “1-phenyl-substituted heterocyclyl derivatives and their use as prostaglandin D2 receptor modulators” (Actelion Pharmaceuticals Ltd., priority 2012, dated 2015).

Molecular target: hCRTH2 receptor (Homo sapiens (Human), UniProt Q9Y5Y4)
Test: hCRTH2 receptor membranes radioligand (3H-PGD2) displacement assay
Conditions: hCRTH2 membrane fragments, Binding-Buffer with 0.1% BSA
Description: Biological Assays: Preparation of hCRTH2 Receptor Membranes and Radioligand Displacement Assay:
First, recombinant HEK293-hCRTH2 cells were detached from culture plates into 5 ml buffer A/plate (Buffer A: 5 mM Tris, 1 mM MgCl2-6H2O pH=7.4) using a rubber policeman. Cells were then transferred into centrifugation tubes and centrifuged for 5 min at 400 g. The cell pellet was resuspended in the same buffer and tubes were frozen at −80° C. Cells were thawed and membrane fragments were generated by homogenization using a polytron homogenizer (30 seconds). The membrane fragments were then centrifuged at 3000 g for 20 minutes and resuspended in buffer C (Buffer C: 75 mM Tris, 25 mM MgCl2, 250 mM Saccharose pH 7.4). Aliquots of membrane fragments were stored at −20° C.
Binding assay was performed in a final assay volume of 250 μl. First, 25 μl of test compound, previously diluted in Binding-Buffer (Binding-Buffer: 50 mM Tris-Base, 100 mM NaCl, 1 mM EDTA, 0.1% BSA (protease free), 0.01% NaN3, 10 mM MnCl2, pH 7.0) was placed into each well. […] Binding assay was started by addition of 100 μl CRTH2 membrane fragments, reaching a final concentration of 20 μg/well. For non-specific binding, PGD2 was added to the reaction mixture to […] final concentration. This assay mix was incubated for 90 minutes at room temperature and then filtered through a GF/C filter 96-well plate which was pre-soaked for 3 hours in 0.5% polyethyleneimine (PEI). The filter-wells were washed three times with ice cold Binding-Buffer. Then, 40 μl of Microscint-40 (Packard) was added to each well and the retained radioactivity quantified in a Topcount (Packard).

Sequence of hCRTH2 receptor (Q9Y5Y4 whole entry): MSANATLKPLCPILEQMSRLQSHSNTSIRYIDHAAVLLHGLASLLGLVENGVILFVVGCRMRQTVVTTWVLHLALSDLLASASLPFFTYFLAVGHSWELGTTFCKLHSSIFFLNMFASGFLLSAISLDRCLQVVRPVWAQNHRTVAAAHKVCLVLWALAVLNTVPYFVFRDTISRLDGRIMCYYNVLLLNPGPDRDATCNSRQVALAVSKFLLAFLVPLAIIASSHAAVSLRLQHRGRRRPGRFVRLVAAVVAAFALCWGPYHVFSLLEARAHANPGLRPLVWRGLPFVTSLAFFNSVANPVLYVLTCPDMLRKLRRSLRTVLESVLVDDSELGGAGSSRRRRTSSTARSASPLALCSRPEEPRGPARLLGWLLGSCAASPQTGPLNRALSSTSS

Cc1ccc(COC(=O)N2CCc3ncsc3C2c2cc(Cl)ccc2OCC(=O)O)c(C)c1 (racemic) [Example 100, (±)-4-(2-Carboxymethoxy-5-chloro-phenyl)-6,7-dihydro-4H-thiazolo[5,4-c]pyridine-5-carboxylic acid 2,4-dimethyl-benzyl ester]
IC50: 7.1 nM

Cc1cccc(COC(=O)N2CCc3ncsc3C2c2cc(Cl)ccc2OCC(=O)O)c1C (racemic) [Example 101, (±)-4-(2-Carboxymethoxy-5-chloro-phenyl)-6,7-dihydro-4H-thiazolo[5,4-c]pyridine-5-carboxylic acid 2,3-dimethyl-benzyl ester]
IC50: 6.1 nM

N#Cc1ccc(OCC(=O)O)c(C2c3scnc3CCN2C(=O)OCc2ccccc2)c1 (racemic) [Example 106, (±)-4-(2-Carboxymethoxy-5-cyano-phenyl)-6,7-dihydro-4H-thiazolo[5,4-c]pyridine-5-carboxylic acid benzyl ester]
IC50: 3.4 nM

O=C(O)COc1ccc(Cl)cc1C1c2scnc2CCN1C(=O)NCCc1ccccc1 (racemic) [Example 107, (±)-[4-Chloro-2-(5-phenethylcarbamoyl-4,5,6,7-tetrahydro-thiazolo[5,4-c]pyridin-4-yl)-phenoxy]-acetic acid]
IC50: 5.7 nM

O=C(O)COc1ccc(Cl)cc1C1c2scnc2CCN1C(=O)NCc1ccccc1Cl (racemic) [Example 108, (±)-{4-Chloro-2-[5-(2-chloro-benzylcarbamoyl)-4,5,6,7-tetrahydro-thiazolo[5,4-c]pyridin-4-yl]-phenoxy}-acetic acid]
IC50: 8.9 nM

CCCc1nc2c(s1)C(c1cc(Cl)ccc1OCC(=O)O)N(C(=O)OCc1ccccc1)CC2 (racemic) [Example 111, (±)-4-(2-Carboxymethoxy-5-chloro-phenyl)-2-propyl-6,7-dihydro-4H-thiazolo[5,4-c]pyridine-5-carboxylic acid benzyl ester]
IC50: 86.4 nM

O=C(O)COc1ccc(Cl)cc1C1c2sc(-c3ccccc3)nc2CCN1C(=O)OCc1ccccc1 (racemic) [Example 112, (±)-4-(2-Carboxymethoxy-5-chloro-phenyl)-2-phenyl-6,7-dihydro-4H-thiazolo[5,4-c]pyridine-5-carboxylic acid benzyl ester]
IC50: 30.9 nM

CS(=O)(=O)Nc1nc2c(s1)C(c1cc(Cl)ccc1OCC(=O)O)N(C(=O)OCc1ccccc1)CC2 (racemic) [Example 113, (±)-4-(2-Carboxymethoxy-5-chloro-phenyl)-2-methanesulfonylamino-6,7-dihydro-4H-thiazolo[5,4-c]pyridine-5-carboxylic acid benzyl ester]
IC50: 254 nM

O=C(O)COc1ccc(Cl)cc1C1c2sc(NS(=O)(=O)C3CC3)nc2CCN1C(=O)OCc1ccccc1 (racemic) [Example 114, (±)-4-(2-Carboxymethoxy-5-chloro-phenyl)-2-cyclopropanesulfonylamino-6,7-dihydro-4H-thiazolo[5,4-c]pyridine-5-carboxylic acid benzyl ester]
IC50: 678 nM

O=C(O)COc1ccc(Cl)cc1C1c2sc(NC(=O)C3CC3)nc2CCN1C(=O)OCc1ccccc1 (racemic) [Example 115, (±)-4-(2-Carboxymethoxy-5-chloro-phenyl)-2-(cyclopropanecarbonyl-amino)-6,7-dihydro-4H-thiazolo[5,4-c]pyridine-5-carboxylic acid benzyl ester]
IC50: 491 nM

CC(=O)Nc1nc2c(s1)C(c1cc(Cl)ccc1OCC(=O)O)N(C(=O)OCc1ccccc1)CC2 (racemic) [Example 116, (±)-2-Acetylamino-4-(2-carboxymethoxy-5-chloro-phenyl)-6,7-dihydro-4H-thiazolo[5,4-c]pyridine-5-carboxylic acid benzyl ester]
IC50: 857 nM

O=C(O)COc1ccc(F)cc1C1c2scnc2CCN1C(=O)OCc1ccccc1 (racemic) [Example 118, (±)-4-(2-Carboxymethoxy-5-fluoro-phenyl)-6,7-dihydro-4H-thiazolo[5,4-c]pyridine-5-carboxylic acid benzyl ester]
IC50: 8.3 nM

C[C@@H](Oc1ccc(Cl)cc1C1c2scnc2CCN1C(=O)OCc1ccccc1)C(=O)O (mixture of isomers) [Example 119, (±)-4-[2-((R)-1-Carboxy-ethoxy)-5-chloro-phenyl]-6,7-dihydro-4H-thiazolo[5,4-c]pyridine-5-carboxylic acid benzyl ester]
IC50: 18.5 nM

C[C@H](Oc1ccc(Cl)cc1C1c2scnc2CCN1C(=O)OCc1ccccc1)C(=O)O (mixture of isomers) [Example 120, (±)-4-[2-((S)-1-Carboxy-ethoxy)-5-chloro-phenyl]-6,7-dihydro-4H-thiazolo[5,4-c]pyridine-5-carboxylic acid benzyl ester]
IC50: 64.4 nM

O=C(O)COc1ccc(Cl)cc1[C@@H]1c2scnc2CCN1C(=O)[C@@H]1C[C@H]1c1cccc(F)c1 [Example 7, (4-Chloro-2-{(R)-5-[(1R,2R)-2-(3-fluoro-phenyl)-cyclopropanecarbonyl]-4,5,6,7-tetrahydro-thiazolo[5,4-c]pyridin-4-yl}-phenoxy)-acetic acid]
IC50: 2.8 nM

O=C(O)COc1ccc(Cl)cc1[C@@H]1c2scnc2CCN1C(=O)[C@@H]1C[C@H]1c1ccc(F)cc1 [Example 8, (4-Chloro-2-{(R)-5-[(1R,2R)-2-(4-fluoro-phenyl)-cyclopropanecarbonyl]-4,5,6,7-tetrahydro-thiazolo[5,4-c]pyridin-4-yl}-phenoxy)-acetic acid]
IC50: 5 nM

O=C(O)COc1ccc(Cl)cc1[C@@H]1c2scnc2CCN1C(=O)[C@H]1C[C@@H]1c1ccc(F)cc1 [Example 9, (4-Chloro-2-{(R)-5-[(1S,2S)-2-(4-fluoro-phenyl)-cyclopropanecarbonyl]-4,5,6,7-tetrahydro-thiazolo[5,4-c]pyridin-4-yl}-phenoxy)-acetic acid]
IC50: 462 nM

Cc1nc2c(s1)[C@@H](c1cc(Cl)ccc1OCC(=O)O)N(C(=O)[C@@H]1C[C@H]1c1ccccc1)CC2 [Example 10, {4-Chloro-2-[(R)-2-methyl-5-((1R,2R)-2-phenyl-cyclopropanecarbonyl)-4,5,6,7-tetrahydro-thiazolo[5,4-c]pyridin-4-yl]-phenoxy}-acetic acid]
IC50: 1.5 nM

Cc1nc2c(s1)[C@H](c1cc(Cl)ccc1OCC(=O)O)N(C(=O)[C@@H]1C[C@H]1c1ccccc1)CC2 [Example 11, {4-Chloro-2-[(S)-2-methyl-5-((1R,2R)-2-phenyl-cyclopropanecarbonyl)-4,5,6,7-tetrahydro-thiazolo[5,4-c]pyridin-4-yl]-phenoxy}-acetic acid]
IC50: 570 nM

Cc1nc2c(s1)[C@H](c1cc(Cl)ccc1OCC(=O)O)N(C(=O)OCc1ccccc1)CC2 [Example 18, (S)-4-(2-Carboxymethoxy-5-chloro-phenyl)-2-methyl-6,7-dihydro-4H-thiazolo[5,4-c]pyridine-5-carboxylic acid benzyl ester]
IC50: 655 nM

Cc1nc2c(s1)[C@@H](c1cc(Cl)ccc1OCC(=O)O)N(C(=O)OCc1ccccc1)CC2 [Example 19, (R)-4-(2-Carboxymethoxy-5-chloro-phenyl)-2-methyl-6,7-dihydro-4H-thiazolo[5,4-c]pyridine-5-carboxylic acid benzyl ester]
IC50: 4.71 nM

O=C(O)COc1ccc(Cl)cc1[C@@H]1c2scnc2CCN1C(=O)OCc1cc(F)ccc1F [Example 58, (R)-4-(2-Carboxymethoxy-5-chloro-phenyl)-6,7-dihydro-4H-thiazolo[5,4-c]pyridine-5-carboxylic acid 2,5-difluoro-benzyl ester]
IC50: 1 nM

CCC(C)(C)COC(=O)N1CCc2ncsc2[C@H]1c1cc(Cl)ccc1OCC(=O)O [Example 60, (R)-4-(2-Carboxymethoxy-5-chloro-phenyl)-6,7-dihydro-4H-thiazolo[5,4-c]pyridine-5-carboxylic acid 2,2-dimethyl-butyl ester]
IC50: 2 nM

O=C(O)COc1ccc(Cl)cc1[C@@H]1c2scnc2CCN1C(=O)OCc1ccc(F)cc1 [Example 61, (R)-4-(2-Carboxymethoxy-5-chloro-phenyl)-6,7-dihydro-4H-thiazolo[5,4-c]pyridine-5-carboxylic acid 4-fluoro-benzyl ester]
IC50: 1.2 nM

COC(C)(C)CCOC(=O)N1CCc2ncsc2[C@H]1c1cc(Cl)ccc1OCC(=O)O [Example 62, (R)-4-(2-Carboxymethoxy-5-chloro-phenyl)-6,7-dihydro-4H-thiazolo[5,4-c]pyridine-5-carboxylic acid 3-methoxy-3-methyl-butyl ester]
IC50: 4.8 nM

Cc1ccc(COC(=O)N2CCc3ncsc3[C@H]2c2cc(Cl)ccc2OCC(=O)O)c(C)c1 [Example 63, (R)-4-(2-Carboxymethoxy-5-chloro-phenyl)-6,7-dihydro-4H-thiazolo[5,4-c]pyridine-5-carboxylic acid 2,4-dimethyl-benzyl ester]
IC50: 0.9 nM

O=C(O)COc1ccc(Cl)cc1[C@@H]1c2scnc2CCN1C(=O)OCc1cc(F)ccc1Cl [Example 64, (R)-4-(2-Carboxymethoxy-5-chloro-phenyl)-6,7-dihydro-4H-thiazolo[5,4-c]pyridine-5-carboxylic acid 2-chloro-5-fluoro-benzyl ester]
IC50: 0.3 nM
